Data published in patent publication US20260207624A1, “COADMINISTRATION OF ESTROGEN WITH ESTROGEN RECEPTOR MODULATOR OR DEGRADER OR ER TARGETED PROTAC FOR THE TREATMENT OF ESTROGEN RESPONSIVE CANCERS” (Duke University, priority 2022, published 2026).

Columns and labels:
[1] = test system: Breast cancer cells; assay: Anti-proliferative activity in breast cancer cell lines (DNA content, Hoechst staining); format: cell-based; conditions: with estradiol 0.1 nM, 7 days after treatment
Experimental: FIGS. 9A-9C. Anti-proliferative activities of SERDs in select breast cancer cell lines differ primarily in potency. Breast cancer cells were plated in phenol red free media supplemented with charcoal stripped FBS prior to treatment in triplicate wells with the indicated SERMs and SERM-like SERDs (FIG. 9A), acidic SERDs (FIG. 9B), basic SERDs (FIG. 9C) at 10^-12 to 10^-5 M final concentration, followed by addition of estradiol (E2, 0.1 nM) or insulin (2 nM, MCF7 cell line only, bottom panels). 7 days after treatment, plates were harvested and DNA quantitated using fluorescence following Hoechst staining. Average detected fluorescence was normalized to wells receiving no ligand treatment, and relative change in DNA fluorescence was calculated compared to wells treated only with E2. Data are representative of at least 3 independent experiments.

[2] = target: T1, ER (Homo sapiens, UniProt P03372); assay: ER downregulation in breast cancer cell lines by in-cell western; format: cell-based; conditions: MCF7, BT483, T47D, ZR751, CAMA1 cells, 24 hours after treatment
T1 construct: SERDs differ in the efficacy of ER downregulation in breast cancer cell lines; endogenous in cells; host or cells: MCF7, BT483, T47D, ZR751, CAMA1
T1 sequence (P03372 1-595): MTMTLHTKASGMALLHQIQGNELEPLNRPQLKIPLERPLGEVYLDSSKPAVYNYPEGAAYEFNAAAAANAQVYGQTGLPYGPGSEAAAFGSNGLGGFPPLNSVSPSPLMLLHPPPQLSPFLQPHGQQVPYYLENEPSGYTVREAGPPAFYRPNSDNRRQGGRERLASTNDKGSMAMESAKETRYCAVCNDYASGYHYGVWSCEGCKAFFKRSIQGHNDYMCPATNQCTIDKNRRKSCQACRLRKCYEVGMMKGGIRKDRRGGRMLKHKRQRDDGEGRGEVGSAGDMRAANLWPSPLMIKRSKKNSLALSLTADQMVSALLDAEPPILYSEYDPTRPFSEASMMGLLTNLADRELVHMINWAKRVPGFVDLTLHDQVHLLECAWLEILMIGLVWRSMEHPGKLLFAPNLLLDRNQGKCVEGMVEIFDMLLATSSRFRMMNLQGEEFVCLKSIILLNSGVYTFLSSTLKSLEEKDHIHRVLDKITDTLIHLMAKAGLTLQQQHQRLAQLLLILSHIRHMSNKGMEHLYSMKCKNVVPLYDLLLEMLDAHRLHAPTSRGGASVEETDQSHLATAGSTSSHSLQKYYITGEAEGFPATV
Experimental: FIGS. 8A-8B. SERDs differ in the efficacy of ER downregulation in breast cancer cell lines. Breast cancer cells, including MCF7, BT483, T47D, ZR751, and CAMA1, were plated in phenol red free media supplemented with charcoal stripped FBS prior to treatment in triplicate wells with the indicated SERMs or SERDs (10-11-10-5 M final concentration). 24 hours after treatment, cells were fixed to the plates, and ER levels were analyzed by in-cell western using a fluorophore conjugated secondary antibody. Average detected ER levels were normalized to well DNA content using DRAQ5 staining. Relative ER turnover was calculated as a ratio of normalized ER levels detected in treated wells to untreated wells. Data were representative of at least 3 independent experiments. Data for each cell line were graphed in 2 panels to categorize SERDs by chemical properties, separating basic SERDs (FIG. 8A) and those having carboxylic acid group(s) (FIG. 8B). Serm-like SERDs bazedoxifene and elacestrant were also presented in (FIG. 8A) for reference. Fulvestrant was included on both graphs for all cell lines to facilitate comparison.

ER downregulation / ER degradation [2]: generally the least efficient SERD
Compound: CCNCCc1ccc(CN(CC)c2cc(OC)ccc2[C@@H]2CCc3cc(O)ccc3C2)cc1 [elacestrant]
inhibition of cellular proliferation [1]: efficacy similar to that observed for other SERDs
